8 compounds from patent publication US12157742B2, “Kinase inhibitors exhibiting anti-cancer activity and their method of use” (ALLCRON PHARMA INC., priority 2018, dated 2024) can be followed below.

Where a name gives a salt, the structure may show the parent alone.

What all share (design): cell survival: unit of the concentration uncertain
Test [1] relates to Ph+ALL cell line BV173-T315I. Kind of test: Cytotoxicity assay, BV173-T315I cells. Format: cell-based. How it is done:
(§1) Cytotoxicity assay: CML patient derived cell lines K562 expressing BCR-ABL T315I, Ph+ALL cell line BV173-T315I, and mouse cell line Ba/F3 T315I were used for cytotoxicity testing. All these cell lines express T315I mutant of BCR-ABL. BV-173-T315I is also a model for blast crisis, the terminal stage in CML. Cell lines were cultured in Iscove's Modified Dulbecco's Medium (IMDM) containing L-glutamine and 25 mM Hepes. The cells were maintained at 37° C. in a humidified CO2 incubator. For cytotoxicity measurement 5000-8000 cells were plated into 96 well plates in quadruplicates. Drugs were dissolved in DMSO and cells were treated in increasing doses ranging from 1 to 10^7 fold. Control cells were treated with respective amounts of DMSO. Cells were incubated for 72 hours and, at the end of the incubation point cell, viability was determined. For this purpose, 25 μl of the cell culture from the 96 well plates were transferred to Ultracruz® black bottom 96 well plates (Santa Cruz Biotechnology) and 25 μl of a live cell detecting fluorescent reagent (Cellular Technology Limited (“CTL”)) was added to the cells. The cells and the CTL reagent was mixed thoroughly and centrifuged for 5 min, at the standard g levels normally used to accelerate settling of the cells to the bottom of the culture medium container without damaging the living cells, and the fluorescence was detected at 405 nm excitation using a CTL scanner. Viable cells will fluoresce green and the machine automatically scans and counts the number of viable cells from each well. The percentage of viable cells in drug treated samples relative to the number of viable cells in DMSO treated samples was then calculated. The data obtained were analyzed using Prism nonlinear regression software (Graphpad Software) for the curve fitting and determination of IC50 values.

Test [2] has as its system mouse cell line Ba/F3 T315I. In words: Cytotoxicity assay, Ba/F3-T315I cells. The note with it: for cancer cell survival rate compared to the DMSO control: 72 hours. Format: cell-based. How it is done:
as §1

Test [3] deals with K562 expressing BCR-ABL T315I. In words: Cytotoxicity assay, K562-T315I cells. Format: cell-based, human. The procedure: as §1
The mark [4] stands for this setting: about 10^−6 M to about 10^−5 M, 72 hours.

For the compound `Cc1nn(C)cc1NC(=O)CSc1nc2cc3c(cc2cc1C#N)OCCO3` [AP-R358, 2-((8-cyano-2,3-dihydro-[1,4]dioxino[2,3-g]quinolin-7-yl)thio)-N-(1,3-dimethyl-1H-pyrazol-4-yl)acetamide], the cell survival entry was “above 90%” in test [1] (at 0.625 (unit uncertain)); “about 20%” in test [1] (at 10 (unit uncertain)); “above 90%” in test [2] (at 0.625 (unit uncertain)); “about 20%” in test [2] (at 10 (unit uncertain)); “above 90%” in test [3] (at 0.625 (unit uncertain)); “about 20%” in test [3] (at 10 (unit uncertain)).

As to `Cc1ccc(CN2CCCC2)cc1NC(=O)CSc1nc2cc3c(cc2cc1C#N)OCCO3` [AP-R235, 2-[(8-cyano-2,3-dihydro-[1,4]dioxino[2,3-g]quinolin-7-yl)sulfanyl]-N-[2-methyl-5-(pyrrolidin-1-ylmethyl)phenyl]acetamide hydrochloride], the “cancer cell survival rate compared to the DMSO control” value is reported as “less than 2%” in test [2] (about 10 μM) and “less than 10%” in test [3] (about 10 μM, 72 hours).

For the compound `Cc1cc(C(=O)Nc2ccc(CN3CCN(C)CC3)cc2)ccc1NC(=O)CSc1nc2cc3c(cc2cc1C#N)OCCO3` [AP-R234, 4-[2-(8-cyano-2H,3H-[1,4]dioxino[2,3-g]quinolin-7-ylsulfanyl)acetamido]-3-methyl-N-4-[(4-methylpiperazin-1-yl)methyl]phenylbenzamide hydrochloride], the “cancer cell survival rate compared to the DMSO control” value in test [2] (dosage printed as 'about M') is reported as “less than 4%”; in test [3] (dosage printed as 'about M', 72 hours), “less than 4%”.

For `N#Cc1cc2cc3c(cc2nc1SCC(=O)Nc1ccccc1C(N)=O)OCCO3` [AP-R230, 2-[2-(8-cyano-2H,3H-[1,4]dioxino[2,3-g]quinolin-7-ylsulfanyl)acetamido]benzamide], the “cancer cell survival rate compared to the DMSO control” value in test [2] (about 5 μM to about 10 μM) is “less than 4%”; in test [3] (about 5 μM to about 10 μM, 72 hours) it was “less than 4%”.

As to `Cc1cc(NC(=O)CSc2nc3cc4c(cc3cc2C#N)OCCO4)n(C)n1` [AP-R357, 2-((8-cyano-2,3-dihydro-[1,4]dioxino[2,3-g]quinolin-7-yl)thio)-N-(1,3-dimethyl-1H-pyrazol-5-yl)acetamide], the “cancer cell survival rate compared to the DMSO control” value in test [1] (about 30 μM, 72 hours) is “less than 6%”; in test [2] (about 30 μM) it was “less than 7%”; in test [3] (about 30 μM, 72 hours) it was “less than 20%”.

On to `Cc1cc(F)ccc1NC(=O)CSc1nc2cc3c(cc2cc1C#N)OCCO3` [AP-R343, 2-({8-cyano-2H,3H-[1,4]dioxino[2,3-g]quinolin-7-yl}sulfanyl)-N-(4-fluoro-2-methylphenyl)acetamide], for which the “cancer cell survival rate compared to the DMSO control” value in test [1] (setting [4]), in test [2] (about 10^−6 M to about 10^−5 M) and in test [3] (setting [4]) was “less than 5%” throughout.

For orientation: IC50 means the concentration that inhibits the measured activity by half. With `Cc1cc(CN2CCCC2)ccc1NC(=O)CSc1nc2cc3c(cc2cc1C#N)OCCO3` [AP-R352, 2-((8-cyano-2,3-dihydro-[1,4]dioxino[2,3-g]quinolin-7-yl)thio)-N-(2-methyl-4-(pyrrolidin-1-ylmethyl)phenyl)acetamide dihydrochloride], the IC50 in test [1] (72 hours, read-out: IC50 for cell killing) came out at 540 nM; in test [2] (Mus musculus, BaF3, 72 hours, read-out: IC50 for cell killing), 800 nM; in test [3] (Homo sapiens, 72 hours, read-out: IC50 for cell killing), 1090 nM.

`Cc1cccc(Cl)c1NC(=O)CSc1nc2cc3c(cc2cc1C#N)OCCO3` [AP-R342, N-(2-chloro-6-methylphenyl)-2-({8-cyano-2H,3H-[1,4]dioxino[2,3-g]quinolin-7-yl}sulfanyl)acetamide]: the “cancer cell survival rate compared to the DMSO control” value in test [1] (setting [4]), in test [2] (about 10^−6 M to about 10^−5 M) and in test [3] (setting [4]) was “less than 7%” in each case.
